The values that follow are results of earlier work, collected in patent US20070202050A1, “Pharmaceutical Formulations” (priority 2006, published 2007).

The conditions of series [1]: topically active steroid.
Series [2] has as its system rhinoviruses.
The subject of series [3] is symptoms associated with chronic nasal congestion.
For series [4], the system named is secretions of natural tear components. The conditions noted are these: preclinical testing.

Each structure is given as a SMILES string.

On to `C[C@@H]1C[C@H]2[C@@H]3CCC4=CC(=O)C=C[C@]4(C)[C@@]3(Cl)[C@@H](O)C[C@]2(C)[C@@]1(OC(=O)c1ccco1)C(=O)CCl` [Mometasone Furoate], for which the bioavailability result in series [1] was “not readily bioavailable”.
As to `Cc1cc(CCCOc2c(C)cc(-c3noc(C(F)(F)F)n3)cc2C)on1` [Pleconaril, 1,2,4-oxadiazole3-[3,5-Dimethyl-4-[3-(3-methyl-5-isoxazolyl)propoxy]phenyl]-5-(trifluoremethyl)], the “solubility in water / aqueous solvents” value is on record as “insoluble”. Besides, in series [2], the activity against rhinoviruses result was “active against rhinoviruses”. Moreover, where the note is “for example corn oil and ethanol”, the solubility in liquids result is “soluble only in liquids of low polarity”.
As to `Oc1cccc(Nc2ncc(F)c(Nc3cccc(O)c3)n2)c1` [R112], in series [3], the “absolute difference over placebo” value is listed as 9%, the “improvement from baseline measurements (prior to drug initiation)” value is given as “up to 38%” and the “relative improvement over placebo” value is given as “greater than 20%”.
As for `O=c1ccn([C@@H]2O[C@H](COP(=O)(O)OP(=O)(O)OP(=O)(O)OP(=O)(O)OC[C@H]3O[C@@H](n4ccc(=O)[nH]c4=O)[C@H](O)[C@@H]3O)[C@@H](O)[C@H]2O)c(=O)[nH]1` [diquafosol], the “effect on secretions of natural tear components” value in series [4] is “increased the secretions of natural tear components”.
